Legend:
CB2 [1] = molecular target: T1, CB2 (Homo sapiens, UniProt P34972); experiment: In vitro competitive binding assay, [3H]CP55,940 displacement, hCB2 membranes; parameters: purchased PerkinElmer; host or cells: CHO-K1 cells, stably transfected (membrane preparation); conditions: CHO-K1 membranes with human CB2, 1.4 nM [3H]CP55,940, Cheng-Prusoff, three experiments in triplicates; read-out: KiCB2
Description: The following test was carried out in order to determine the binding affinity of the compounds of formula I towards CB2 and CB1:
Competitive binding reactions were initiated by the addition of a membrane preparation obtained from CHO-K1 cells stably transfected with human CB1 and CB2, respectively, from PerkinElmer (0.5 pig/tube for hCB1 and hCB2) into incubation tubes. As displacer, 1.4 nM [^3H]CP55,940 (PerkinElmer) was used and 6 to 10 concentrations (ranging from 1 pM to 10 μM) of displacing ligand (compound to test) in assay buffer (50 mM TRIS, 1 mM EDTA, 3 mM MgCl2 and 0.05% bovine serum albumin, pH adjusted to 7.4) were added. Nonspecific binding was defined by the presence of 5 μM WIN-55212-2. After incubation at 30° C. for 90 min reactions were terminated by the addition of 3 mL ice cold assay buffer followed by rapid vacuum filtration through a Whatman GF/C filter (pre-soaked for 2 h in 0.05% polyethylenimine in water) and washed twice with 3 mL ice cold assay buffer. The bound activity was counted in a Beckman LS 6500 Liquid Scintillation Counter after adding 3 mL scintillation cocktail (Ultima Gold, Perkin Elmer) and thorough shaking. For each mean value three experiments, each in triplicates, were performed. K, values were determined with the equation from Cheng-Prusoff.

[2] = in vitro transport assay, radiolabelled KD2; cited from earlier work
CB2 [3] = molecular target: T2, CB2 (Rattus norvegicus, UniProt Q9QZN9); parameters: host or cells: rats in vivo (Mu et al., J. Neurochem. 2013); conditions: cited from earlier work
T2 sequence (Q9QZN9 1-360): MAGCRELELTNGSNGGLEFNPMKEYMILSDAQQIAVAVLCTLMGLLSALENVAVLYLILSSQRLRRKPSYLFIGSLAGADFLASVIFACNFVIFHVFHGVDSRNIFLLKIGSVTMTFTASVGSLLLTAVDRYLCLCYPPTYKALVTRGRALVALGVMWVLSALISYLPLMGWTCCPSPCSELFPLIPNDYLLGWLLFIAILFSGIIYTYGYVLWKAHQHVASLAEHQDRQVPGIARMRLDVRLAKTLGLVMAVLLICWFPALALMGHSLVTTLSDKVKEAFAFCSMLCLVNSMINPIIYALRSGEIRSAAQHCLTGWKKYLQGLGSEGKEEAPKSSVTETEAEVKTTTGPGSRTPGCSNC

[4] = cited from earlier work
CB2 [5] = experiment: In vitro autoradiography of rat and mouse spleen slices; type: binding; conditions: 0.2 nM radioligand; for binding to spleen slices, displaced by excess of GW405833: blockade 5 μM GW405833
Description: (§1) Rodent (mouse and rat) spleen tissue were embedded in TissueTek and cut into 20 μm-thick sections on a Cryostat HM 505 N (Microm) at −15° C. (blade and block). The slices were absorbed on SuperFrost Plus slides (Menzel) and stored at −80° until used. For the experiment, the slices were thawed on ice for 10 min before conditioning in incubation buffer (50 mM TRIS/HCl, 5% BSA, pH 7.4) on ice for 10 min. The slices were then dripped with 600 μL of radioligand solution (0.2 nM) in incubation buffer and incubated for 15 min at rt in a humid chamber. For blockade conditions, the slices were dripped with 600 μL of a mixture of radioligand and GW405833 (5 μM), a specific CB2 partial agonist. After incubation, the slices were washed with washing buffer (50 mM TRIS/HCl, 1% BSA, 5% EtOH, pH 7.4) for 2 min (2×) and with distilled water for 5 s (2×) on ice. After drying for 10 min at rt, the slices were exposed (30 min) to appropriate phosphor imager plates (Fuji) and the films were scanned in a BAS5000 reader (Fuji).

[6] = Distribution coefficient (log D), shake-flask method; type: physicochemical; conditions: octanol / phosphate buffer pH 7.4, shake-flask, radiotracer
Description: The partition coefficient D was determined by the shake-flask method. Octanol saturated with phosphate buffer pH 7.4 (0.5 mL) and phosphate buffer saturated with octanol (0.5 mL) were mixed with radiotracer of interest (^˜3 MBq). The samples were shaken for 15 min and then centrifuged at 5000 g for 5 min. Radioactivity in each phase was measured in a gamma counter (Wizard, PerkinElmer). Log D is expressed as the logarithm of the ratio between the radioactivity concentrations (Bq/mL) of the octanol and the buffer phase.

CB2 [7] = molecular target: T2, CB2; type: in vivo, male Wistar rats; parameters: from tissue; host or cells: organs of male Wistar rats after iv tracer injection; conditions: baseline vs blocking with 1.5 mg/kg GW405833, Wistar rats
Description: For blocking conditions, GW405833 (1.5 mg/kg) was injected 30 min before the experiment (n=3). Animals were sacrificed under anesthesia with isoflurane by decapitation at 15 min post injection (p.i). Organs were collected, weighed and radioactivity measured in a gamma-counter. The accumulated radioactivity in the organs was expressed as part per thousand normalized injected dose per gram of tissue (% o normalized ID/g tissue).

CB2 [8] = molecular target: T1, CB2; experiment: Autoradiography with post mortem spinal cord slices of ALS patients; type: binding; parameters: from tissue; host or cells: human post mortem ALS spinal cord sections; conditions: 0.2 nM tracer, absence or presence of 5 μM GW405833
Description: as §1
To evaluate the potential of our novel CB2 PET tracer in imaging ALS, post mortem spinal cord tissues from ALS patients were investigated in autoradiography experiments. Human post mortem ALS spinal cord tissue samples were embedded in TissueTek and cut into 20 μm-thick sections on a Cryostat. Autoradiography was performed as described in section “Example 5”.

CB2 [9] = molecular target: T3, CB2 (Mus musculus, UniProt P47936); experiment: LPS mouse model of neuroinflammation, small animal PET brain scans; type: in vivo, CD1 male mice
T3 construct: from tissue; host or cells: brain of living CD1 male mice (PET)
T3 sequence (P47936 whole entry): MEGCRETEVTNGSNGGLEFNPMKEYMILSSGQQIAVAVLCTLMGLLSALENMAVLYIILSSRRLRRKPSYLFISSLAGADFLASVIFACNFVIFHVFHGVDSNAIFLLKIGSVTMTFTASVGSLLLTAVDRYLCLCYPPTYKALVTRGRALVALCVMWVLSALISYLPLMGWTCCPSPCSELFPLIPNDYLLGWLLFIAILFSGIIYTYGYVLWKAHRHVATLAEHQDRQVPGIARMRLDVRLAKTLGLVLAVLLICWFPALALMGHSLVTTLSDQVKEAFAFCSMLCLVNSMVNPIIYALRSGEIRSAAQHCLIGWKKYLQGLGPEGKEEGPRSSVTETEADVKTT
Description: As a model of neuroinflammation, six CD1 male mice were injected ip (100-150 μl) with 10 mg/kg lipopolysaccharide (LPS), Escherichia coli strain O111:B4, or vehicle (saline) 5 days prior to PET. […] For blocking conditions, 2.0 mg/kg GW405833 was injected sc 30 min before tracer application. Depth of anesthesia was monitored by measuring respiratory frequency (SA Instruments, Inc., Stony Brook, USA). Body temperature was controlled by a rectal probe and kept at 37° C. by a thermocoupler and a heated air stream. Data were reconstructed in user-defined time frames with a voxel size of 0.3875×0.3875×0.775 mm^3 by 2-dimensional-ordered subsets expectation maximization (2D-OSEM). Random and single but no attenuation correction was applied. PET acquisitions were followed by a CT for anatomical orientation. Image files were analyzed with PMOD 3.5 software (PMOD Technologies Ltd., Zurich, Switzerland). Tissue radioactivity was expressed as standardized uptake values (SUV), that is, the decay-corrected radioactivity per cm^3 divided by the injected radioactivity dose per gram of body weight.

T1 sequence (P34972 whole entry): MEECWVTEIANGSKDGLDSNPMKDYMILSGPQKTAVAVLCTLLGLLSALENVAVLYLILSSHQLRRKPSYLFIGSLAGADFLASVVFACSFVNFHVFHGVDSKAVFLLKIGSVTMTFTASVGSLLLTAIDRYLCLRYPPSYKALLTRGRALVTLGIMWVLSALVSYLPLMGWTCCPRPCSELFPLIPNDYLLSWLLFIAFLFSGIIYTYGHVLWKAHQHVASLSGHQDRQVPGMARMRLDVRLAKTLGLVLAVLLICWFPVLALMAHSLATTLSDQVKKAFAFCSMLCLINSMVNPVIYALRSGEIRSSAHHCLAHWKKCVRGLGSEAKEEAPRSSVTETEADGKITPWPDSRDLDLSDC

For CCCCn1cc(C(=O)NC23CC4CC(CC(C4)C2)C3)c(=O)c2cccc(OC)c21 [RS-005, N-(1-adamantyl)-1-butyl-8-methoxy-4-oxo-1,4-dihydroquinoline-3-carboxamide], which Ki (CB2 [1]) is on record?
The Ki was 3.3 ± 0.2 nM.

Which Ki (CB2 [1]) does the source give for CCCCCn1cc(C(=O)NC23CC4CC(CC(C4)C2)C3)c(=O)c2cccc(OC)c21 [KD2, N-(1-adamantyl)-1-pentyl-8-methoxy-4-oxo-1,4-dihydroquinoline-3-carboxamide] here?
The Ki was 1.7 ± 2 nM.

And the “blood-brain barrier (BBB) passage” value [2]?
The value was “moderate”.

And the distribution in brain (CB2 [3]; in vivo PET experiments)?
Its distribution in brain is “relatively low”.

And the spleen uptake (CB2 [3]; rats, radiolabelled KD2)?
The spleen uptake was “high spleen uptake”.

And the “log D value at pH 7.4” value [4]?
The value was 3.29.

With COc1cccc2c(=O)c(C(=O)NC(C)(C)C)cn(CCCF)c12 [RS-011, N-(tert-butyl)-1-(3-fluoropropyl)-8-methoxy-4-oxo-1,4-dihydroquinoline-3-carboxamide] as the molecule, how does the Ki (CB2 [1]) read?
The Ki was 750 ± 780 nM.

For CCCCn1cc(C(=O)NC2CCCC2)c(=O)c2cccc(OC)c21 [RS-007, 1-butyl-N-cyclopentyl-8-methoxy-4-oxo-1,4-dihydroquinoline-3-carboxamide], which Ki (CB2 [1]) is on record?
The Ki was 19.7 ± 8.8 nM.

Which Ki (CB2 [1]) does the source give for CCOCCn1cc(C(=O)NCCc2ccccc2)c(=O)c2cccc(OC)c21 [RS-022, 1-(2-ethoxyethyl)-8-methoxy-4-oxo-N-phenethyl-1,4-dihydroquinoline-3-carboxamide] here?
Its Ki is 360 ± 240 nM.

Which “unspecific binding on spleen slices” value (CB2 [5]) does the source give for COc1cccc2c(=O)c(C(=O)NC34CC5CC(CC(C5)C3)C4)cn(CCOCC[18F])c12 [[^18F]RS-126] here?
The value was “only little unspecific binding”.

What about the “binding to spleen slices, displaced by excess of GW405833” value (CB2 [5]) of the same molecule?
The value was “high binding to spleen”.

And the logD [6]?
Its logD is 1.99.

Which Ki (CB2 [1]) does the source give for CCOCCn1cc(C(=O)NC23CC4CC(CC(C4)C2)C3)c(=O)c2cccc(OCCF)c21 [RS-122, N-(1-adamantanyl)-1-(2-ethoxyethyl)-8-(2-fluoroethoxy)-4-oxo-1,4-dihydroquinoline-3-carboxamide] here?
The Ki was 72 ± 102 nM.

Which Ki (CB2 [1]) does the source give for CCCCn1cc(C(=O)NCC2CC2)c(=O)c2cccc(OC)c21 [RS-008, 1-butyl-N-(cyclopropylmethyl)-8-methoxy-4-oxo-1,4-dihydroquinoline-3-carboxamide] here?
Its Ki is 78.8 ± 33.1 nM.

With CCOCCn1cc(C(=O)NC23CC4CC(CC(F)(C4)C2)C3)c(=O)c2cccc(OC)c21 [RS-030, 1-(2-ethoxyethyl)-N-(3-fluoroadamantyl)-8-methoxy-4-oxo-1,4-dihydroquinoline-3-carboxamide] as the molecule, how does the Ki (CB2 [1]) read?
Its Ki is 2.1 ± 1.5 nM.

For CCOCCn1cc(C(=O)NC23CC4CC(CC(O)(C4)C2)C3)c(=O)c2cccc(OC)c21 [RS-028, 1-(2-ethoxyethyl)-N-(3-hydroxyadamantan-1-yl)-8-methoxy-4-oxo-1,4-dihydroquinoline-3-carboxamide], which Ki (CB2 [1]) is on record?
Its Ki is 0.8 ± 0.8 nM.

With COc1cccc2c(=O)c(C(=O)NC34CC5CC(CC(C5)C3)C4)cn(CCOCCF)c12 [RS-126, N-(1-adamantyl)-1-(2-(2-fluoroethoxy)ethyl)-8-methoxy-4-oxo-1,4-dihydroquinoline-3-carboxamide] as the molecule, how does the Ki (CB2 [1]) read?
Its Ki is 1.2 ± 0.8 nM.

For CCOCCn1cc(C(=O)NC23CC4CC(CC(C4)C2)C3)c(=O)c2cccc(OC)c21 [[^11C]RS-016, N-(1-adamantyl)-1-(2-ethoxyethyl)-8-methoxy-4-oxo-1,4-dihydroquinoline-3-carboxamide], which “unspecific binding on spleen slices” value (CB2 [5]) is on record?
Its value is “only little unspecific binding”.

And the “binding to spleen slices, displaced by excess of GW405833” value (CB2 [5])?
Its value is “high binding to spleen”.

What about the “share of total activity in spleen tissue due to specific CB2 binding” value (CB2 [7]) of the same molecule?
Its value is 78%.

And the “binding to ALS spinal cord tissue” value (CB2 [8])?
The value was “high specific binding”.

And the “log D pH 7.4” value [6]?
Its value is 2.78.

What about the “tracer accumulation in brain regions after LPS treatment compared to vehicle group” value (CB2 [9]; 5 days after 10 mg/kg LPS ip, whole brain, cortex, hippocampus, cerebellum) of the same molecule?
Its value is “Increased”.

And the “tracer accumulation in brain regions after blockade” value (CB2 [9]; LPS mice, 2 mg/kg GW405833 sc 30 min before tracer)?
Its value is “reduced in all brain regions”.

For CCCCn1cc(C(=O)NC(C)(C)C)c(=O)c2cccc(OC)c21 [RS-006, N-(tert-butyl)-1-butyl-8-methoxy-4-oxo-1,4-dihydroquinoline-3-carboxamide], which Ki (CB2 [1]) is on record?
The Ki was 8.2 ± 5.5 nM.
